Experimental data taken from patent publication US11000033B2, “Ketone or oxime compound, and herbicide” (NISSAN CHEMICAL CORPORATION, priority 2014, dated 2021).

Columns and labels:
Type in all cases: in vivo
beet = test: Test Example 5: effect on crop by foliage application, plastic box (symbol f); settings: 320 g/ha, 3 weeks after application
Outline: (§1)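 Crop and weed seeds sown in spots in sterilized diluvial soil in plastic boxes and covered with about 1.5 cm soil. Plants raised in a greenhouse at 25° C. to 30° C. for foliar application.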

rapeseed [1] = test: Test Example 5: effect on crop by foliage application, plastic box (symbol g); settings: 320 g/ha, 3 weeks after application
Outline: as §1

wheat [2] = test: Test Example 5: effect on crop by foliage application, plastic box (symbol e); settings: 320 g/ha, 3 weeks after application
Outline: as §1

[3] = tested on: directly sowed rice plant; test: Test Example 3: effect on crop by foliage application, Wagner pot (symbol b); settings: application herbicide amount 320 g/ha
Outline: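 Wagner pot (1/10000 are), alluvial soil, submerged 0.1–0.5 cm; sown E. crus-galli var. crus-galli, L. chinensis, C. difformis, rice; greenhouse 25–30 °C.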

rice plant = test: Test Example 5: effect on crop by foliage application, plastic box (symbol b); settings: 320 g/ha, 3 weeks after application
Outline: as §1

Abutilon theophrasti = test: Test Example 5: herbicidal effect by foliage application, plastic box (symbol M); settings: 320 g/ha, 3 weeks after application
Outline: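 Post-emergence spray; diluvial soil (sterilized), ~1.5 cm seed cover; greenhouse 25–30° C; 14-day-old plants; water-diluted emulsion at predetermined dose; visual score at 3 wk post-treatment.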

wheat [4] = test: Test Example 4: effect on crop by soil treatment (symbol e); settings: application herbicide amount 320 g/ha
Outline: (§2)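 Sterilized diluvial soil, spot sowing, ~1.5 cm soil cover; greenhouse 25–30° C.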

rice = test: Test Example 4: effect on crop by soil treatment (symbol b); settings: application herbicide amount 320 g/ha
Outline: as §2

Scirpus juncoides = test: Test Example 2: herbicidal activity, application during weed generation in submerged conditions (symbol B); settings: Table 23; application herbicide amount 320 g/ha; grade 0-5 by criteria of Test Example 1
Outline: (§3)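 Seeds sown in flooded alluvial soil (4 cm water) were grown in a 25-30° C greenhouse. At the one- to two-leaf stage, diluted emulsion of compound was applied to the water surface at a predetermined rate. Effect was scored 3 weeks later.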

soybean = test: Test Example 4: effect on crop by soil treatment (symbol d); settings: application herbicide amount 320 g/ha
Outline: as §2

Apera spica-venti = test: Test Example 4: herbicidal effect by soil treatment (symbol L); settings: application herbicide amount 320 g/ha
Outline: (§4)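 Seeds were sown in sterilized diluvial soil, covered with about 1.5 cm of soil, and the soil surface was sprayed with a water-diluted emulsion of the compound at a predetermined rate. Plants grew in a greenhouse at 25° C. to 30° C.; effects were scored visually 3 weeks after application.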

rapeseed [5] = test: Test Example 4: effect on crop by soil treatment (symbol g); settings: application herbicide amount 320 g/ha
Outline: as §2

Amaranthus retroflexus = test: Test Example 4: herbicidal effect by soil treatment (symbol N); settings: application herbicide amount 320 g/ha
Outline: as §4

Avena fatua = test: Test Example 4: herbicidal effect by soil treatment (symbol I); settings: application herbicide amount 320 g/ha
Outline: as §4

[6] = tested on: Echinochloa oryzacola Vasing.; test: Test Example 2: herbicidal activity, application during weed generation in submerged conditions (symbol A); settings: Table 23; application herbicide amount 320 g/ha; grade 0-5 by criteria of Test Example 1
Outline: as §3

Lolium multiflorum Lam. = test: Test Example 4: herbicidal effect by soil treatment (symbol K); settings: application herbicide amount 320 g/ha
Outline: as §4

Row | Structure (SMILES) | f: beet, effect on crop (criteria of Test Example 1) (beet) | g: rapeseed, effect on crop (criteria of Test Example 1) (rapeseed [1]) | e: wheat, effect on crop (criteria of Test Example 1) (wheat [2]) | effect on crop b (directly sowed rice plant), grade 0-5 [3] | b: directly sowed rice plant, effect on crop (criteria of Test Example 1) (rice plant) | M: Abutilon theophrasti, herbicidal effect (criteria of Test Example 1) (Abutilon theophrasti) | e: wheat, effect on crop grade (wheat [4]) | b: directly sowed rice plant, effect on crop grade (rice) | Herbicidal effect grade, B: Scirpus juncoides (Scirpus juncoides) | d: soybean, effect on crop grade (soybean) | L: Apera spica-venti, herbicidal effect grade (Apera spica-venti) | g: rapeseed, effect on crop grade (rapeseed [5]) | N: Amaranthus retroflexus, herbicidal effect grade (Amaranthus retroflexus) | I: Avena fatua, herbicidal effect grade (Avena fatua) | Herbicidal effect grade, A: Echinochloa oryzacola Vasing. [6] | K: Lolium multiflorum Lam., herbicidal effect grade (Lolium multiflorum Lam.)
1 | CON=C(C)CC1CC(OC(=O)N2CCOCC2)=C(c2c(C)cc(-c3ccc(F)cc3)cc2C)C1=O (mixture of isomers) [6-059] | 0 (Herbicidal ratio of 5% or lower (almost no effect)) | 5 (Herbicidal ratio of 90% or more (almost completely withered)) | 5 (Herbicidal ratio of 90% or more (almost completely withered)) | 5 (Herbicidal ratio of 90% or more (almost completely withered)) | 5 (Herbicidal ratio of 90% or more (almost completely withered)) | 5 (Herbicidal ratio of 90% or more (almost completely withered)) | 0 (Herbicidal ratio of 5% or lower (almost no effect)) | 0 (Herbicidal ratio of 5% or lower (almost no effect)) | 4 (Herbicidal ratio of 70% or higher and lower than 90%) | 0 (Herbicidal ratio of 5% or lower (almost no effect)) | 5 (Herbicidal ratio of 90% or more (almost completely withered)) | 0 (Herbicidal ratio of 5% or lower (almost no effect)) | 0 (Herbicidal ratio of 5% or lower (almost no effect)) | 3 (Herbicidal ratio of 40% or higher and lower than 70%) | 5 (Herbicidal ratio of 90% or more (almost completely withered)) | 1 (Herbicidal ratio of 5% or higher and lower than 20%)
2 | CON=C(C)CC1CC(OS(=O)(=O)N(C)C)=C(c2c(C)cc(-c3ccc(F)cc3)cc2C)C1=O (mixture of isomers) [6-060] | 2 (Herbicidal ratio of 20% or higher and lower than 40%) | 5 (Herbicidal ratio of 90% or more (almost completely withered)) | 4 (Herbicidal ratio of 70% or higher and lower than 90%) | 5 (Herbicidal ratio of 90% or more (almost completely withered)) | 5 (Herbicidal ratio of 90% or more (almost completely withered)) | 5 (Herbicidal ratio of 90% or more (almost completely withered)) | 0 (Herbicidal ratio of 5% or lower (almost no effect)) | 3 (Herbicidal ratio of 40% or higher and lower than 70%) | 4 (Herbicidal ratio of 70% or higher and lower than 90%) | 0 (Herbicidal ratio of 5% or lower (almost no effect)) | 0 (Herbicidal ratio of 5% or lower (almost no effect)) | 0 (Herbicidal ratio of 5% or lower (almost no effect)) | 5 (Herbicidal ratio of 90% or more (almost completely withered)) | 0 (Herbicidal ratio of 5% or lower (almost no effect)) | 5 (Herbicidal ratio of 90% or more (almost completely withered)) | 3 (Herbicidal ratio of 40% or higher and lower than 70%)
3 | CON=C(C)CC1CC(OC(=O)COc2ccccc2)=C(c2c(C)cc(-c3ccc(Cl)cc3)cc2C)C1=O (mixture of isomers) [6-061] | 3 (Herbicidal ratio of 40% or higher and lower than 70%) | 4 (Herbicidal ratio of 70% or higher and lower than 90%) | 5 (Herbicidal ratio of 90% or more (almost completely withered)) | 5 (Herbicidal ratio of 90% or more (almost completely withered)) | 5 (Herbicidal ratio of 90% or more (almost completely withered)) | 4 (Herbicidal ratio of 70% or higher and lower than 90%) | 2 (Herbicidal ratio of 20% or higher and lower than 40%) | 5 (Herbicidal ratio of 90% or more (almost completely withered)) | 4 (Herbicidal ratio of 70% or higher and lower than 90%) | 0 (Herbicidal ratio of 5% or lower (almost no effect)) | 5 (Herbicidal ratio of 90% or more (almost completely withered)) | 3 (Herbicidal ratio of 40% or higher and lower than 70%) | 3 (Herbicidal ratio of 40% or higher and lower than 70%) | 4 (Herbicidal ratio of 70% or higher and lower than 90%) | 5 (Herbicidal ratio of 90% or more (almost completely withered)) | 5 (Herbicidal ratio of 90% or more (almost completely withered))
4 | CON=C(C)CC1CC(OC(=O)N2CCOCC2)=C(c2c(C)cc(-c3ccc(Cl)cc3)cc2C)C1=O (mixture of isomers) [6-062] | 0 (Herbicidal ratio of 5% or lower (almost no effect)) | 4 (Herbicidal ratio of 70% or higher and lower than 90%) | 5 (Herbicidal ratio of 90% or more (almost completely withered)) | 5 (Herbicidal ratio of 90% or more (almost completely withered)) | 5 (Herbicidal ratio of 90% or more (almost completely withered)) | 3 (Herbicidal ratio of 40% or higher and lower than 70%) | 0 (Herbicidal ratio of 5% or lower (almost no effect)) | 0 (Herbicidal ratio of 5% or lower (almost no effect)) | 3 (Herbicidal ratio of 40% or higher and lower than 70%) | 0 (Herbicidal ratio of 5% or lower (almost no effect)) | 5 (Herbicidal ratio of 90% or more (almost completely withered)) | 0 (Herbicidal ratio of 5% or lower (almost no effect)) | 0 (Herbicidal ratio of 5% or lower (almost no effect)) | 0 (Herbicidal ratio of 5% or lower (almost no effect)) | 5 (Herbicidal ratio of 90% or more (almost completely withered)) | 0 (Herbicidal ratio of 5% or lower (almost no effect))
5 | CON=C(C)CC1CC(OC(=O)N(C)C)=C(c2c(C)cc(-c3ccc(Cl)cc3)cc2C)C1=O (mixture of isomers) [6-063] | 0 (Herbicidal ratio of 5% or lower (almost no effect)) | 4 (Herbicidal ratio of 70% or higher and lower than 90%) | 4 (Herbicidal ratio of 70% or higher and lower than 90%) | 5 (Herbicidal ratio of 90% or more (almost completely withered)) | 3 (Herbicidal ratio of 40% or higher and lower than 70%) | 2 (Herbicidal ratio of 20% or higher and lower than 40%) | 0 (Herbicidal ratio of 5% or lower (almost no effect)) | 0 (Herbicidal ratio of 5% or lower (almost no effect)) | 3 (Herbicidal ratio of 40% or higher and lower than 70%) | 0 (Herbicidal ratio of 5% or lower (almost no effect)) | 5 (Herbicidal ratio of 90% or more (almost completely withered)) | 0 (Herbicidal ratio of 5% or lower (almost no effect)) | 0 (Herbicidal ratio of 5% or lower (almost no effect)) | 0 (Herbicidal ratio of 5% or lower (almost no effect)) | 2 (Herbicidal ratio of 20% or higher and lower than 40%) | 0 (Herbicidal ratio of 5% or lower (almost no effect))
